This is an account of results in ChEMBL document CHEMBL4368935, “Binding of thiazolidinediones to the endoplasmic reticulum protein nutrient-deprivation autophagy factor-1” (Bioorg Med Chem Lett, 2019).

SMILES strings stand for the structures. Active and inactive are the calls of the source. The calls are words filed in the database; no cut-off is given here.

Assay [1] deals with T1, CDGSH iron-sulfur domain-containing protein 2 (Homo sapiens, UniProt Q8N5K1).
T1 sequence (Q8N5K1 whole entry): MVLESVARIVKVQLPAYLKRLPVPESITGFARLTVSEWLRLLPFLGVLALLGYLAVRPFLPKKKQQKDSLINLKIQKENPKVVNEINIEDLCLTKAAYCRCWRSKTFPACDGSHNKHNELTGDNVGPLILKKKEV
The assay is described as follows: Binding affinity to recombinant human N-terminal His6-tagged NAF1 expressed in Escherichia coli by scintillation proximity assay. A general note: Scintillation proximity formats need no separation of bound from free tracer.

The target of assay [2] is T2, CDGSH iron-sulfur domain-containing protein 2 (Homo sapiens) (UniProt Q8N5K1).
T2 sequence (whole entry): T1 sequence (Q8N5K1 whole entry)
The assay is described as follows: Binding affinity to NAF1 (unknown origin) expressed in human HepG2 cells assessed as inhibition of mitochondrial respiration at 30 uM. In kind it is cell-based.

Assay [3] deals with T2, CDGSH iron-sulfur domain-containing protein 2 (Homo sapiens). Briefly: Binding affinity to NAF1 in human HepG2 cells assessed as inhibition of mitochondrial respiration at 30 uM. In kind it is cell-based.
Assay [4] shares this target. The assay is described as follows: Binding affinity to NAF1 (unknown origin) expressed in human HepG2 cells assessed as increase in mitochondrial respiration at 30 uM relative to wild-type cells. In kind it is cell-based.

In the case of `CCc1ccc(CCOc2ccc(CC3SC(=O)NC3=O)cc2)nc1` (stereo not given) [PIOGLITAZONE], the IC50 in assay [1] worked out at 4.8 µM. Also, the inhibition entry in assay [2] and in assay [3] was “Active” throughout. Further, the Activity in assay [4] came to 13%.
As to `CC(C)(C)c1cc(CC2SC(=O)N=C2O)cc(C(C)(C)C)c1O` (stereo not given), the IC50 in assay [1] was determined as 29.8 µM. The inhibition result in assay [2] and in assay [3] was “Active” throughout.
`CN(CCOc1ccc(CC2SC(=O)NC2=O)cc1)c1ccccn1` (stereo not given) [ROSIGLITAZONE]: in assay [1], the IC50 was 2.29 µM. Also, the inhibition result in assay [2] and in assay [3] was “Active” throughout.

Broadly, the IC50 is the point on the concentration scale where inhibition reaches its midpoint.
